# Test results from patent publication US10881694B2, “In vitro model for neuronal death” (priority 2003, dated 2021).
# Legend:
# cortical neurons [1] = test: Neuronal death by LDH release assay (and chromatin fragmentation, FIG. 3) after neurotoxic exposure; assay type: cell-based, mouse; conditions: for effect of co-treatment on neuroprotection by statins: co-treatment with HMG-CoA reductase inhibitor
# cortical neurons [2] = test: Polarization of somal lipid raft microdomains (CTx-B staining) in cultured cortical neurons; assay type: cell-based, mouse; conditions: for inhibition of lipid raft / microdomain polarization: treatment of cortical cultures, neurotoxic insult not specified; for percentage of neurons with polarized raft microdomains: cholesterol-depleted vs control neurons; for inhibition of lipid raft polarization: FIG. 3, 25 μM A-beta 25-35 peptide and 300 μM NMDA
# cortical neurons [3] = test: Chromatin integrity (DAPI): nuclei with condensed and fragmented chromatin; assay type: cell-based, mouse; conditions: cholesterol-depleted vs control neurons
# [4] = active form of mevastatin; cited from earlier work
# [5] = three hours following 20 μM Aβ 25-35
compound,measurement,setting,value
CC(O)(CCO)CC(=O)O (stereo not shown) [mevalonate],effect of co-treatment on neuroprotection by statins,cortical neurons [1],substantially attenuated
"A-beta 25-35 peptide: beta-amyloid peptide fragment 25-35, neurotoxic stimulus (GSNKGAIIGLM; Amyloid-beta protein 42; UniProt P05067 696-706, looked up, fragment)",induction of raft microdomain polarization to a pole of the neuronal cell body,"cortical neurons [2]; neurotoxic stimulus, FIG. 1B",aggregation and polarization of raft microdomains
C=C1[C@@H](C)[C@H]2[C@H](Cc3ccccc3)NC(=O)[C@]23[C@H](OC(C)=O)/C=C/[C@@](C)(O)C(=O)[C@@H](C)C/C=C/[C@H]3[C@@H]1O [cytochalasin D],inhibition of lipid raft / microdomain polarization,cortical neurons [2],prevents the polarization of lipid microdomains
latrunculins,inhibition of lipid raft / microdomain polarization,cortical neurons [2],prevents the polarization of lipid microdomains
methyl-β-cyclodextrin [βCD],inhibition of raft polarization,"cortical neurons [2]; 15 min exposure to 25 μM A-beta 25-35 peptide, 1 hr pre-treatment",inhibition of raft polarization
same,percentage of neurons with polarized raft microdomains,cortical neurons [2]; 1 h following 300 μM NMDA,significantly lower
same,inhibition of lipid raft polarization,cortical neurons [2],inhibit lipid raft polarization
same,percentage of neurons with polarized raft microdomains,cortical neurons [2]; [5],significantly lower
same,inhibition of lipid raft / microdomain polarization,cortical neurons [2],inhibits lipid raft polarization
same,protection against neurotoxic exposure (LDH release assay and chromatin fragmentation),cortical neurons [1]; 25 μM A-beta 25-35 peptide,protect against neurotoxic exposure
same,protection against neurotoxic exposure (LDH release assay and chromatin fragmentation),cortical neurons [1]; 300 μM NMDA,protect against neurotoxic exposure
same,protection against neuronal death / neurotoxic insults,"cortical neurons [1]; treatment of cortical cultures, insult not specified",protects against neuronal death
same,percentage of neurons with condensed and fragmented chromatin,cortical neurons [3]; 24 h following 300 μM NMDA,significantly lower
same,percentage of neurons with condensed and fragmented chromatin,cortical neurons [3]; 48 h following 20 μM Aβ 25-35,significantly lower
CC[C@H](C)C(=O)O[C@H]1CCC=C2C=C[C@H](C)[C@H](CC[C@@H]3C[C@@H](O)CC(=O)O3)[C@H]21 [mevastatin],percentage of neurons with polarized raft microdomains,cortical neurons [2]; 1 h following 300 μM NMDA,significantly lower
same,inhibition of lipid raft polarization,cortical neurons [2],inhibit lipid raft polarization
same,percentage of neurons with polarized raft microdomains,cortical neurons [2]; [5],significantly lower
same,protection against neurotoxic exposure (LDH release assay and chromatin fragmentation),cortical neurons [1]; 25 μM A-beta 25-35 peptide,protect against neurotoxic exposure
same,protection against neurotoxic exposure (LDH release assay and chromatin fragmentation),cortical neurons [1]; 300 μM NMDA,protect against neurotoxic exposure
same,percentage of neurons with condensed and fragmented chromatin,cortical neurons [3]; 24 h following 300 μM NMDA,significantly lower
same,percentage of neurons with condensed and fragmented chromatin,cortical neurons [3]; 48 h following 20 μM Aβ 25-35,significantly lower
same,lipophilicity relative to simvastatin (times less lipophilic),[4],approximately 8 times
CC(C)CCC[C@@H](C)[C@H]1CC[C@H]2[C@@H]3CC=C4C[C@@H](O)CC[C@]4(C)[C@H]3CC[C@]12C [cholesterol],effect on cholesterol depletion induced resistance to neuronal death (LDH release),"cortical neurons [1]; 5 μM cholesterol co-incubated with mevastatin, or 2 mM cholesterol complexed with 2.5% βCD for 15 min after 1% βCD, 20 μM Aβ 25-35 or NMDA",prevented
same,effect of co-treatment on neuroprotection by statins,cortical neurons [1],substantially attenuated
C[N+](C)(C)CC(O)CC(=O)[O-] (stereo not shown) [carnitine],inhibition of lipid raft / microdomain polarization,cortical neurons [2],inhibit raft polarization
